Measured values from ChEMBL document CHEMBL1157315, “Saponins from Polygala japonica and their effects on a forced swimming test in mice” (2006).

Experiments:
Mus musculus [1] = assay: Antidepressant activity in ICR mouse assessed as reduction in immobility time of forced swimming at 10 mg/kg, po administered once daily for 5 days by forced swimming test relative to control; assay type: functional; design: scale not given: the % may be the effect or the level left
Mus musculus [2] = assay: Antidepressant activity in ICR mouse assessed as reduction in immobility time of forced swimming at 100 mg/kg, po administered once daily for 5 days by forced swimming test relative to control; assay type: functional; design: scale not given: the % may be the effect or the level left

Question: `CNCCC(Oc1ccc(C(F)(F)F)cc1)c1ccccc1` (configuration not stated) [FLUOXETINE] was tested. Which Activity (Mus musculus [1]) did it give?
Answer: 50.7%

Question: How did the Activity (Mus musculus [1]) turn out when `C[C@@H]1O[C@@H](O[C@H]2[C@H](OC(=O)[C@]34CCC(C)(C)C[C@H]3C3=CC[C@@H]5[C@@]6(C)C[C@H](O)[C@H](O)[C@@](C)(C(=O)O)[C@@H]6CC[C@@]5(C)[C@]3(C)CC4)O[C@H](CO)[C@@H](O)[C@@H]2O)[C@H](O)[C@H](O)[C@H]1O[C@@H]1OC[C@@H](O)[C@H](O)[C@H]1O` [POLYGALASAPONIN E] was run?
Answer: 35.4%

Question: And the Activity (Mus musculus [2])?
Answer: 58.1%

Question: How did the Activity (Mus musculus [1]) turn out when `C[C@@H]1O[C@@H](O[C@H]2[C@H](OC(=O)[C@]34CCC(C)(C)C[C@H]3C3=CC[C@@H]5[C@@]6(C)C[C@H](O)[C@H](O)[C@@](C)(C(=O)O)[C@@H]6CC[C@@]5(C)[C@]3(C)CC4)O[C@H](CO)[C@@H](O)[C@@H]2O)[C@H](O)[C@H](O[C@H]2OC[C@@](O)(CO)[C@@H]2O)[C@H]1O[C@@H]1OC[C@@H](O)[C@H](O)[C@H]1O` [POLYGALASAPONIN H] was run?
Answer: 45.8%

Question: And the Activity (Mus musculus [2])?
Answer: 51.3%

Question: How did the Activity (Mus musculus [1]) turn out when `C[C@@H]1O[C@@H](O[C@H]2[C@H](OC(=O)[C@]34CCC(C)(C)C[C@H]3C3=CC[C@@H]5[C@@]6(C)C[C@H](O)[C@H](O[C@@H]7O[C@H](CO)[C@@H](O)[C@H](O)[C@H]7O)[C@](C)(CO)[C@@H]6CC[C@@]5(C)[C@]3(C)CC4)O[C@H](CO)[C@@H](O[C@@H]3OC[C@@H](O)[C@H](O)[C@H]3O)[C@@H]2O[C@@H]2OC[C@](O)(CO)[C@H]2O)[C@H](O)[C@H](O)[C@H]1O` [POLYGALASAPONIN V] was run?
Answer: 16.8%

Question: What about the Activity (Mus musculus [2]) of the same compound?
Answer: 16.6%
